Measured values taken from ChEMBL document CHEMBL5506059, “Cyanomethylquinolones as a New Class of Potential Multitargeting Broad-Spectrum Antibacterial Agents” (J Med Chem, 2024).
In brackets after ≈: the same amount, converted by molar mass.

How the values were obtained:
Staphylococcus aureus [1] = experiment: Antibacterial activity against methicillin resistant Staphylococcus aureus clinical isolate assessed as inhibition of bacterial growth incubated for 24 hrs; type: functional
Staphylococcus aureus [2] = experiment: Antibacterial activity against Staphylococcus aureus clinical isolate assessed as inhibition of bacterial growth incubated for 24 hrs; type: functional
Staphylococcus aureus [3] = experiment: Antibacterial activity against Staphylococcus aureus ATCC 25923 assessed as inhibition of bacterial growth incubated for 24 hrs; type: functional
Staphylococcus aureus [4] = experiment: Antibacterial activity against Staphylococcus aureus ATCC 29213 assessed as inhibition of bacterial growth incubated for 24 hrs; type: functional
Enterococcus faecalis [5] = experiment: Antibacterial activity against Enterococcus faecalis clinical isolate assessed as inhibition of bacterial growth incubated for 24 hrs; type: functional
Klebsiella pneumoniae = experiment: Antibacterial activity against Klebsiella pneumoniae clinical isolate assessed as inhibition of bacterial growth incubated for 24 hrs; type: functional
Escherichia coli [6] = experiment: Antibacterial activity against Escherichia coli clinical isolate assessed as inhibition of bacterial growth incubated for 24 hrs; type: functional
Escherichia coli [7] = experiment: Antibacterial activity against Escherichia coli ATCC 25922 assessed as inhibition of bacterial growth incubated for 24 hrs; type: functional
Pseudomonas aeruginosa [8] = experiment: Antibacterial activity against Pseudomonas aeruginosa clinical isolate assessed as inhibition of bacterial growth incubated for 24 hrs; type: functional
Pseudomonas aeruginosa [9] = experiment: Antibacterial activity against Pseudomonas aeruginosa ATCC 27853 assessed as inhibition of bacterial growth incubated for 24 hrs; type: functional
Acinetobacter baumannii = experiment: Antibacterial activity against Acinetobacter baumannii clinical isolate assessed as inhibition of bacterial growth incubated for 24 hrs; type: functional
Streptococcus pneumoniae = experiment: Antibacterial activity against Streptococcus pneumoniae ATCC 6305 assessed as inhibition of bacterial growth incubated for 24 hrs; type: functional
Streptococcus pyogenes = experiment: Antibacterial activity against Streptococcus pyogenes ATCC 19615 assessed as inhibition of bacterial growth incubated for 24 hrs; type: functional
[10] = test system: Staphylococcus epidermidis; experiment: Antibacterial activity against Staphylococcus epidermidis ATCC 12228 assessed as inhibition of bacterial growth incubated for 24 hrs; type: functional
Staphylococcus aureus [11] = experiment: Antibacterial activity against methicillin-resistant Staphylococcus aureus ATCC 43300 assessed as inhibition of bacterial growth incubated for 24 hrs; type: functional
Staphylococcus aureus [12] = experiment: Antibacterial activity against Staphylococcus aureus ATCC 12600 assessed as inhibition of bacterial growth incubated for 24 hrs; type: functional
Staphylococcus aureus [13] = experiment: Antibacterial activity against Staphylococcus aureus ATCC 6538 assessed as inhibition of bacterial growth incubated for 24 hrs; type: functional
Staphylococcus aureus [14] = experiment: Antibacterial activity against Staphylococcus aureus CMCC(B)26003 assessed as inhibition of bacterial growth incubated for 24 hrs; type: functional
Staphylococcus aureus [15] = experiment: Antibacterial activity against Staphylococcus aureus CMCC(B)26001 assessed as inhibition of bacterial growth incubated for 24 hrs; type: functional
Enterococcus faecium = experiment: Antibacterial activity against Enterococcus faecium ATCC 19434 assessed as inhibition of bacterial growth incubated for 24 hrs; type: functional
Enterococcus faecalis [16] = experiment: Antibacterial activity against vancomycin-resistant Enterococcus faecalis clinical isolate p1-2007226001 assessed as inhibition of bacterial growth incubated for 24 hrs; type: functional
Enterococcus faecalis [17] = experiment: Antibacterial activity against vancomycin-resistant Enterococcus faecalis clinical isolate p1-2007225053 assessed as inhibition of bacterial growth incubated for 24 hrs; type: functional
Erythrocyte = experiment: Hemolytic activity in human Red blood cells assessed as concentration required for 5% hemolysis measured after 1.5 hrs by absorbance based assay; type: toxicity, cell-based
[18] = Hemolytic activity in human Red blood cells at 256 ug/ml measured after 1.5 hrs by absorbance based assay relative to control; type: toxicity, cell-based, Erythrocyte; details: red blood cells (erythrocytes), at 256 µg/mL, read-out: Activity

| SMILES | MIC (Staphylococcus aureus [1]) | MIC (Staphylococcus aureus [2]) | MIC (Staphylococcus aureus [3]) | MIC (Staphylococcus aureus [4]) | MIC (Enterococcus faecalis [5]) | MIC (Klebsiella pneumoniae) | MIC (Escherichia coli [6]) | MIC (Escherichia coli [7]) | MIC (Pseudomonas aeruginosa [8]) | MIC (Pseudomonas aeruginosa [9]) | MIC (Acinetobacter baumannii) | MIC (Streptococcus pneumoniae) | MIC (Streptococcus pyogenes) | MIC [10] | MIC (Staphylococcus aureus [11]) | MIC (Staphylococcus aureus [12]) | MIC (Staphylococcus aureus [13]) | MIC (Staphylococcus aureus [14]) | MIC (Staphylococcus aureus [15]) | MIC (Enterococcus faecium) | further results |
| --- | --- | --- | --- | --- | --- | --- | --- | --- | --- | --- | --- | --- | --- | --- | --- | --- | --- | --- | --- | --- | --- |
| N#CCc1cc2c(cc1F)c(=O)c(C(=O)O)cn2Cc1ccc(F)cc1F | 256 µg/mL (≈ 688 µM) | 256 µg/mL (≈ 688 µM) | 0.25 µg/mL (≈ 0.671 µM) | 0.5 µg/mL (≈ 1.34 µM) | 256 µg/mL (≈ 688 µM) | 8 µg/mL (≈ 21.5 µM) | 0.5 µg/mL (≈ 1.34 µM) | 0.25 µg/mL (≈ 0.671 µM) | 0.5 µg/mL (≈ 1.34 µM) | 0.5 µg/mL (≈ 1.34 µM) | 4 µg/mL (≈ 10.7 µM) | 32 µg/mL (≈ 86 µM) | 0.25 µg/mL (≈ 0.671 µM) | 64 µg/mL (≈ 172 µM) | 128 µg/mL (≈ 344 µM) | 64 µg/mL (≈ 172 µM) | 32 µg/mL (≈ 86 µM) | 2 µg/mL (≈ 5.37 µM) | 2 µg/mL (≈ 5.37 µM) | 128 µg/mL (≈ 344 µM) | MIC (Enterococcus faecalis [16]): 64 µg/mL (≈ 172 µM); MIC (Enterococcus faecalis [17]): 64 µg/mL (≈ 172 µM); HC5 (Erythrocyte): 60 µg/mL |
| CCCCCCCCn1cc(C(=O)O)c(=O)c2cc(F)c(CC#N)cc21 | 256 µg/mL (≈ 714 µM) | 256 µg/mL (≈ 714 µM) | 1 µg/mL (≈ 2.79 µM) | 256 µg/mL (≈ 714 µM) | 256 µg/mL (≈ 714 µM) | 256 µg/mL (≈ 714 µM) | 0.5 µg/mL (≈ 1.4 µM) | 256 µg/mL (≈ 714 µM) | 2 µg/mL (≈ 5.58 µM) | 256 µg/mL (≈ 714 µM) | 256 µg/mL (≈ 714 µM) | 64 µg/mL (≈ 179 µM) | 2 µg/mL (≈ 5.58 µM) | 128 µg/mL (≈ 357 µM) | 64 µg/mL (≈ 179 µM) | 32 µg/mL (≈ 89.3 µM) | 64 µg/mL (≈ 179 µM) | 2 µg/mL (≈ 5.58 µM) | 2 µg/mL (≈ 5.58 µM) | 128 µg/mL (≈ 357 µM) | MIC (Enterococcus faecalis [16]): 128 µg/mL (≈ 357 µM); MIC (Enterococcus faecalis [17]): 256 µg/mL (≈ 714 µM); HC5 (Erythrocyte): 258 µg/mL |
| CCn1cc(C(=O)O)c(=O)c2cc(F)c(CC#N)cc21 | 1 µg/mL (≈ 3.65 µM) | 1 µg/mL (≈ 3.65 µM) | 0.25 µg/mL (≈ 0.912 µM) | 4 µg/mL (≈ 14.6 µM) | 32 µg/mL (≈ 117 µM) | 2 µg/mL (≈ 7.29 µM) | 4 µg/mL (≈ 14.6 µM) | 2 µg/mL (≈ 7.29 µM) | 0.5 µg/mL (≈ 1.82 µM) | 0.25 µg/mL (≈ 0.912 µM) | 0.5 µg/mL (≈ 1.82 µM) | 32 µg/mL (≈ 117 µM) | 1 µg/mL (≈ 3.65 µM) | 256 µg/mL (≈ 933 µM) | 128 µg/mL (≈ 467 µM) | 64 µg/mL (≈ 233 µM) | 2 µg/mL (≈ 7.29 µM) | 4 µg/mL (≈ 14.6 µM) | 4 µg/mL (≈ 14.6 µM) | 256 µg/mL (≈ 933 µM) | MIC (Enterococcus faecalis [16]): 128 µg/mL (≈ 467 µM); MIC (Enterococcus faecalis [17]): 128 µg/mL (≈ 467 µM); HC5 (Erythrocyte): > 10000 µg/mL; hemolysis at 1.5 h, 256 ug/ml [18]: < 1% |
| N#CCc1cc2c(cc1F)c(=O)c(C(=O)O)cn2Cc1cnc(Cl)s1 | 1 µg/mL (≈ 2.65 µM) | 8 µg/mL (≈ 21.2 µM) | 8 µg/mL (≈ 21.2 µM) | 4 µg/mL (≈ 10.6 µM) | 16 µg/mL (≈ 42.4 µM) | 8 µg/mL (≈ 21.2 µM) | 8 µg/mL (≈ 21.2 µM) | 1 µg/mL (≈ 2.65 µM) | 0.5 µg/mL (≈ 1.32 µM) | 2 µg/mL (≈ 5.29 µM) | 16 µg/mL (≈ 42.4 µM) | – | – | – | – | – | – | – | – | – | – |
| CCCCn1cc(C(=O)O)c(=O)c2cc(F)c(CC#N)cc21 | 0.5 µg/mL (≈ 1.65 µM) | 8 µg/mL (≈ 26.5 µM) | 0.25 µg/mL (≈ 0.827 µM) | 8 µg/mL (≈ 26.5 µM) | 64 µg/mL (≈ 212 µM) | 1 µg/mL (≈ 3.31 µM) | 4 µg/mL (≈ 13.2 µM) | 0.5 µg/mL (≈ 1.65 µM) | 0.5 µg/mL (≈ 1.65 µM) | 4 µg/mL (≈ 13.2 µM) | 256 µg/mL (≈ 847 µM) | – | – | – | – | – | – | – | – | – | – |
| N#CCc1cc2c(cc1F)c(=O)c(C(=O)O)cn2Cc1ccccn1 | 32 µg/mL (≈ 94.9 µM) | 256 µg/mL (≈ 759 µM) | 1 µg/mL (≈ 2.96 µM) | 8 µg/mL (≈ 23.7 µM) | 8 µg/mL (≈ 23.7 µM) | 4 µg/mL (≈ 11.9 µM) | 8 µg/mL (≈ 23.7 µM) | 0.25 µg/mL (≈ 0.741 µM) | 0.5 µg/mL (≈ 1.48 µM) | 16 µg/mL (≈ 47.4 µM) | 2 µg/mL (≈ 5.93 µM) | – | – | – | – | – | – | – | – | – | – |
| O=C(O)Cc1cc2c(cc1F)c(=O)c(C(=O)O)cn2Cc1ccccc1 | 16 µg/mL (≈ 45 µM) | 32 µg/mL (≈ 90.1 µM) | 16 µg/mL (≈ 45 µM) | 64 µg/mL (≈ 180 µM) | 32 µg/mL (≈ 90.1 µM) | 4 µg/mL (≈ 11.3 µM) | 64 µg/mL (≈ 180 µM) | 8 µg/mL (≈ 22.5 µM) | 32 µg/mL (≈ 90.1 µM) | 8 µg/mL (≈ 22.5 µM) | 64 µg/mL (≈ 180 µM) | – | – | – | – | – | – | – | – | – | – |
